Data: patent US20160251332A1, “Herbicidal Compounds” (SYNGENTA PARTICIPATIONS AG, priority 2013, published 2016)

system: Abutilon theophrasti; test: Post-emergence herbicidal activity, ABUTH; format: in vivo; details: Application post-emergence, 1000 g/Ha, evaluated after 13 days, scale 0-5
Protocol: (§1) Seeds of a variety of test species were sown in standard soil in pots. After 8 days cultivation (post-emergence) under controlled conditions in a glasshouse (at 24/16° C., day/night; 14 hours light; 65% humidity), the plants were sprayed with an aqueous spray solution derived from the formulation of the technical active ingredient in acetone/water (50:50) solution containing 0.5% Tween 20 (polyoxyethelyene sorbitan monolaurate, CAS RN 9005-64-5). The test plants were then grown in a glasshouse under controlled conditions (at 24/16° C., day/night; 14 hours light; 65% humidity) and watered twice daily. After 13 days, the test was evaluated (5=total damage to plant; 0=no damage to plant).

SMILES	ABUTH damage score
CN1CC(O)N(c2cc(C(F)(F)F)c(-c3cccc(S(=O)(=O)N(C)C)c3)cn2)C1=O (stereo not drawn) [Compound A10]	5
CN1CC(O)N(c2cc(C(F)(F)F)c(-c3cccc(NS(C)(=O)=O)c3)cn2)C1=O (stereo not drawn) [Compound A8]	4
Cc1ccccc1-c1cnc(N2C(=O)N(C)CC2O)cc1C(F)(F)F (stereo not drawn) [Compound A7]	5
COc1cnc(N2C(=O)N(C)CC2O)cc1C(F)(F)F (stereo not drawn) [Compound A39]	5
CN1CC(O)N(c2cc(C(F)(F)F)c(-c3ccsc3)cn2)C1=O (stereo not drawn) [Compound A4, 4-hydroxy-1-methyl-3-[5-(3-thienyl)-4-(trifluoromethyl)-2-pyridyl]imidazolidin-2-one]	5

system: Amaranthus retroflexus; test: Post-emergence herbicidal activity, AMARE; format: in vivo; details: Application post-emergence, 1000 g/Ha, evaluated after 13 days, scale 0-5
Protocol: as §1

SMILES	AMARE damage score
CN1CC(O)N(c2cc(C(F)(F)F)c(-c3cccc(S(=O)(=O)N(C)C)c3)cn2)C1=O (stereo not drawn) [Compound A10]	5
CN1CC(O)N(c2cc(C(F)(F)F)c(-c3cccc(NS(C)(=O)=O)c3)cn2)C1=O (stereo not drawn) [Compound A8]	5
Cc1ccccc1-c1cnc(N2C(=O)N(C)CC2O)cc1C(F)(F)F (stereo not drawn) [Compound A7]	5
COc1cnc(N2C(=O)N(C)CC2O)cc1C(F)(F)F (stereo not drawn) [Compound A39]	5
CN1CC(O)N(c2cc(C(F)(F)F)c(-c3ccsc3)cn2)C1=O (stereo not drawn) [Compound A4, 4-hydroxy-1-methyl-3-[5-(3-thienyl)-4-(trifluoromethyl)-2-pyridyl]imidazolidin-2-one]	5

system: Abutilon theophrasti; test: Pre-emergence herbicidal activity, ABUTH; format: in vivo; details: Application pre-emergence, 1000 g/Ha, evaluated after 13 days, scale 0-5
Protocol: as §1, with “After” for “After 8 days”, “for one day (pre-emergence)” for “(post-emergence)”

SMILES	ABUTH damage score
CN1CC(O)N(c2cc(C(F)(F)F)c(-c3cccc(S(=O)(=O)N(C)C)c3)cn2)C1=O (stereo not drawn) [Compound A10]	5
CN1CC(O)N(c2cc(C(F)(F)F)c(-c3cccc(NS(C)(=O)=O)c3)cn2)C1=O (stereo not drawn) [Compound A8]	2
Cc1ccccc1-c1cnc(N2C(=O)N(C)CC2O)cc1C(F)(F)F (stereo not drawn) [Compound A7]	2
COc1cnc(N2C(=O)N(C)CC2O)cc1C(F)(F)F (stereo not drawn) [Compound A39]	5
CN1CC(O)N(c2cc(C(F)(F)F)c(-c3ccsc3)cn2)C1=O (stereo not drawn) [Compound A4, 4-hydroxy-1-methyl-3-[5-(3-thienyl)-4-(trifluoromethyl)-2-pyridyl]imidazolidin-2-one]	2

system: Zea mays; test: Pre-emergence herbicidal activity, ZEAMX; format: in vivo; details: Application pre-emergence, 1000 g/Ha, evaluated after 13 days, scale 0-5
Protocol: as §1, with “After” for “After 8 days”, “for one day (pre-emergence)” for “(post-emergence)”

SMILES	ZEAMX damage score
CN1CC(O)N(c2cc(C(F)(F)F)c(-c3cccc(S(=O)(=O)N(C)C)c3)cn2)C1=O (stereo not drawn) [Compound A10]	3
CN1CC(O)N(c2cc(C(F)(F)F)c(-c3cccc(NS(C)(=O)=O)c3)cn2)C1=O (stereo not drawn) [Compound A8]	2
Cc1ccccc1-c1cnc(N2C(=O)N(C)CC2O)cc1C(F)(F)F (stereo not drawn) [Compound A7]	1
COc1cnc(N2C(=O)N(C)CC2O)cc1C(F)(F)F (stereo not drawn) [Compound A39]	2
CN1CC(O)N(c2cc(C(F)(F)F)c(-c3ccsc3)cn2)C1=O (stereo not drawn) [Compound A4, 4-hydroxy-1-methyl-3-[5-(3-thienyl)-4-(trifluoromethyl)-2-pyridyl]imidazolidin-2-one]	2

system: Alopecurus myosuroides; test: Post-emergence herbicidal activity, ALOMY; format: in vivo; details: Application post-emergence, 1000 g/Ha, evaluated after 13 days, scale 0-5
Protocol: as §1

SMILES	ALOMY damage score
CN1CC(O)N(c2cc(C(F)(F)F)c(-c3cccc(S(=O)(=O)N(C)C)c3)cn2)C1=O (stereo not drawn) [Compound A10]	5
CN1CC(O)N(c2cc(C(F)(F)F)c(-c3cccc(NS(C)(=O)=O)c3)cn2)C1=O (stereo not drawn) [Compound A8]	1
Cc1ccccc1-c1cnc(N2C(=O)N(C)CC2O)cc1C(F)(F)F (stereo not drawn) [Compound A7]	4
COc1cnc(N2C(=O)N(C)CC2O)cc1C(F)(F)F (stereo not drawn) [Compound A39]	5
CN1CC(O)N(c2cc(C(F)(F)F)c(-c3ccsc3)cn2)C1=O (stereo not drawn) [Compound A4, 4-hydroxy-1-methyl-3-[5-(3-thienyl)-4-(trifluoromethyl)-2-pyridyl]imidazolidin-2-one]	4

system: Setaria faberi; test: Post-emergence herbicidal activity, SETFA; format: in vivo; details: Application post-emergence, 1000 g/Ha, evaluated after 13 days, scale 0-5
Protocol: as §1

SMILES	SETFA damage score
CN1CC(O)N(c2cc(C(F)(F)F)c(-c3cccc(S(=O)(=O)N(C)C)c3)cn2)C1=O (stereo not drawn) [Compound A10]	5
CN1CC(O)N(c2cc(C(F)(F)F)c(-c3cccc(NS(C)(=O)=O)c3)cn2)C1=O (stereo not drawn) [Compound A8]	1
Cc1ccccc1-c1cnc(N2C(=O)N(C)CC2O)cc1C(F)(F)F (stereo not drawn) [Compound A7]	5
COc1cnc(N2C(=O)N(C)CC2O)cc1C(F)(F)F (stereo not drawn) [Compound A39]	5
CN1CC(O)N(c2cc(C(F)(F)F)c(-c3ccsc3)cn2)C1=O (stereo not drawn) [Compound A4, 4-hydroxy-1-methyl-3-[5-(3-thienyl)-4-(trifluoromethyl)-2-pyridyl]imidazolidin-2-one]	5

system: Alopecurus myosuroides; test: Pre-emergence herbicidal activity, ALOMY; format: in vivo; details: Application pre-emergence, 1000 g/Ha, evaluated after 13 days, scale 0-5
Protocol: as §1, with “After” for “After 8 days”, “for one day (pre-emergence)” for “(post-emergence)”

SMILES	ALOMY damage score
CN1CC(O)N(c2cc(C(F)(F)F)c(-c3cccc(S(=O)(=O)N(C)C)c3)cn2)C1=O (stereo not drawn) [Compound A10]	4
CN1CC(O)N(c2cc(C(F)(F)F)c(-c3cccc(NS(C)(=O)=O)c3)cn2)C1=O (stereo not drawn) [Compound A8]	1
Cc1ccccc1-c1cnc(N2C(=O)N(C)CC2O)cc1C(F)(F)F (stereo not drawn) [Compound A7]	1
COc1cnc(N2C(=O)N(C)CC2O)cc1C(F)(F)F (stereo not drawn) [Compound A39]	4
CN1CC(O)N(c2cc(C(F)(F)F)c(-c3ccsc3)cn2)C1=O (stereo not drawn) [Compound A4, 4-hydroxy-1-methyl-3-[5-(3-thienyl)-4-(trifluoromethyl)-2-pyridyl]imidazolidin-2-one]	3

system: Setaria faberi; test: Pre-emergence herbicidal activity, SETFA; format: in vivo; details: Application pre-emergence, 1000 g/Ha, evaluated after 13 days, scale 0-5
Protocol: as §1, with “After” for “After 8 days”, “for one day (pre-emergence)” for “(post-emergence)”

SMILES	SETFA damage score
CN1CC(O)N(c2cc(C(F)(F)F)c(-c3cccc(S(=O)(=O)N(C)C)c3)cn2)C1=O (stereo not drawn) [Compound A10]	4
CN1CC(O)N(c2cc(C(F)(F)F)c(-c3cccc(NS(C)(=O)=O)c3)cn2)C1=O (stereo not drawn) [Compound A8]	3
Cc1ccccc1-c1cnc(N2C(=O)N(C)CC2O)cc1C(F)(F)F (stereo not drawn) [Compound A7]	1
COc1cnc(N2C(=O)N(C)CC2O)cc1C(F)(F)F (stereo not drawn) [Compound A39]	4
CN1CC(O)N(c2cc(C(F)(F)F)c(-c3ccsc3)cn2)C1=O (stereo not drawn) [Compound A4, 4-hydroxy-1-methyl-3-[5-(3-thienyl)-4-(trifluoromethyl)-2-pyridyl]imidazolidin-2-one]	3

system: Amaranthus retroflexus; test: Pre-emergence herbicidal activity, AMARE; format: in vivo; details: Application pre-emergence, 1000 g/Ha, evaluated after 13 days, scale 0-5
Protocol: as §1, with “After” for “After 8 days”, “for one day (pre-emergence)” for “(post-emergence)”

SMILES	AMARE damage score
CN1CC(O)N(c2cc(C(F)(F)F)c(-c3cccc(S(=O)(=O)N(C)C)c3)cn2)C1=O (stereo not drawn) [Compound A10]	5
CN1CC(O)N(c2cc(C(F)(F)F)c(-c3cccc(NS(C)(=O)=O)c3)cn2)C1=O (stereo not drawn) [Compound A8]	2
Cc1ccccc1-c1cnc(N2C(=O)N(C)CC2O)cc1C(F)(F)F (stereo not drawn) [Compound A7]	3
COc1cnc(N2C(=O)N(C)CC2O)cc1C(F)(F)F (stereo not drawn) [Compound A39]	5
CN1CC(O)N(c2cc(C(F)(F)F)c(-c3ccsc3)cn2)C1=O (stereo not drawn) [Compound A4, 4-hydroxy-1-methyl-3-[5-(3-thienyl)-4-(trifluoromethyl)-2-pyridyl]imidazolidin-2-one]	5

system: Echinochloa crus-galli; test: Post-emergence herbicidal activity, ECHCG; format: in vivo; details: Application post-emergence, 1000 g/Ha, evaluated after 13 days, scale 0-5
Protocol: as §1

SMILES	ECHCG damage score
CN1CC(O)N(c2cc(C(F)(F)F)c(-c3cccc(S(=O)(=O)N(C)C)c3)cn2)C1=O (stereo not drawn) [Compound A10]	5
CN1CC(O)N(c2cc(C(F)(F)F)c(-c3cccc(NS(C)(=O)=O)c3)cn2)C1=O (stereo not drawn) [Compound A8]	1
Cc1ccccc1-c1cnc(N2C(=O)N(C)CC2O)cc1C(F)(F)F (stereo not drawn) [Compound A7]	5
COc1cnc(N2C(=O)N(C)CC2O)cc1C(F)(F)F (stereo not drawn) [Compound A39]	5
CN1CC(O)N(c2cc(C(F)(F)F)c(-c3ccsc3)cn2)C1=O (stereo not drawn) [Compound A4, 4-hydroxy-1-methyl-3-[5-(3-thienyl)-4-(trifluoromethyl)-2-pyridyl]imidazolidin-2-one]	5

system: Zea mays; test: Post-emergence herbicidal activity, ZEAMX; format: in vivo; details: Application post-emergence, 1000 g/Ha, evaluated after 13 days, scale 0-5
Protocol: as §1

SMILES	ZEAMX damage score
CN1CC(O)N(c2cc(C(F)(F)F)c(-c3cccc(S(=O)(=O)N(C)C)c3)cn2)C1=O (stereo not drawn) [Compound A10]	4
CN1CC(O)N(c2cc(C(F)(F)F)c(-c3cccc(NS(C)(=O)=O)c3)cn2)C1=O (stereo not drawn) [Compound A8]	1
Cc1ccccc1-c1cnc(N2C(=O)N(C)CC2O)cc1C(F)(F)F (stereo not drawn) [Compound A7]	3
COc1cnc(N2C(=O)N(C)CC2O)cc1C(F)(F)F (stereo not drawn) [Compound A39]	4
CN1CC(O)N(c2cc(C(F)(F)F)c(-c3ccsc3)cn2)C1=O (stereo not drawn) [Compound A4, 4-hydroxy-1-methyl-3-[5-(3-thienyl)-4-(trifluoromethyl)-2-pyridyl]imidazolidin-2-one]	0

system: Echinochloa crus-galli; test: Pre-emergence herbicidal activity, ECHCG; format: in vivo; details: Application pre-emergence, 1000 g/Ha, evaluated after 13 days, scale 0-5
Protocol: as §1, with “After” for “After 8 days”, “for one day (pre-emergence)” for “(post-emergence)”

SMILES	ECHCG damage score
CN1CC(O)N(c2cc(C(F)(F)F)c(-c3cccc(S(=O)(=O)N(C)C)c3)cn2)C1=O (stereo not drawn) [Compound A10]	5
CN1CC(O)N(c2cc(C(F)(F)F)c(-c3cccc(NS(C)(=O)=O)c3)cn2)C1=O (stereo not drawn) [Compound A8]	1
Cc1ccccc1-c1cnc(N2C(=O)N(C)CC2O)cc1C(F)(F)F (stereo not drawn) [Compound A7]	1
COc1cnc(N2C(=O)N(C)CC2O)cc1C(F)(F)F (stereo not drawn) [Compound A39]	4
CN1CC(O)N(c2cc(C(F)(F)F)c(-c3ccsc3)cn2)C1=O (stereo not drawn) [Compound A4, 4-hydroxy-1-methyl-3-[5-(3-thienyl)-4-(trifluoromethyl)-2-pyridyl]imidazolidin-2-one]	4
